Measurements reported in patent EP1201661A1, “HETEROAROMATIC RING COMPOUNDS” (Sumitomo Pharmaceuticals Company, Limited, priority 1999, dated 2001).

Tested on: adjuvant-induced arthritis
Test: Inhibition of adjuvant-induced arthritis (hind paw swelling)
Assay type: in vivo, Male SD rats
Details: 5 consecutive days from day 17 after adjuvant
Source text: Inhibition of adjuvant-induced arthritis
Male SD rats were used as test subjects. Heat-kllled Mycobacterium butyricum suspended in liquid paraffin in a concentration of 0.5% was subcutaneously injected into the right hind paw of each rat. After 17 days, animals showing the clear onset of secondary inflammation also in the left hind paw were selected, and each compound of the present invention suspended in a 0.5% methyl cellulose solution was orally administered to the animals for 5 consecutive days. The volume of each hind paw at the completion of the administration was compared with that at the beginning of the administration, and the swelling-inhibitory effect was evaluated by the difference between them.

[1] = oral dose 50 mg/kg, volume at completion vs beginning of administration

| SMILES | Increase of edema volume (ml) Injected paw [1] [mL] | Increase of edema volume (ml) Non-injected paw [1] [mL] | Increase of edema volume (ml) Injected paw (oral dose 25 mg/kg) [mL] | Increase of edema volume (ml) Non-injected paw (oral dose 25 mg/kg) [mL] |
| --- | --- | --- | --- | --- |
| CC(c1cccc(C(=O)c2ccccc2)c1)c1nc(N=C(N(C)C)N2CCOCC2)ns1.Cl (stereo not shown) [Experiment 73, N'-{5-[1-(3-Benzoylphenyl)ethyl]-1,2,4-thiadiazol-3-yl}-N,N-dimethyl-4-morpholinecarboximidamide hydrochloride] | -0.95 | -0.78 |  |  |
| CC(c1cccc(C(=O)c2ccccc2)c1)c1n[nH]c(N)n1.Cl (stereo not shown) [Experiment 320, {3-[1-(5-Amino-1H-1,2,4-triazol-3-yl)ethyl]phenyl}(phenyl)methanone hydrochloride] |  |  | -1.20 | -0.53 |
| CC(c1ccc(-c2ccccc2)c(F)c1)c1cc(N=C(N)N2CCOCC2)n(C)n1.Cl.Cl (stereo not shown) [Experiment 49, N'-{3-[1-(2-Fluoro[1,1'-biphenyl]-4-yl)ethyl]-1-methyl-1H-pyrazol-5-yl}-4-morpholinecarboximidamide dihydrochloride] | -0.24 | -0.17 |  |  |
| CCNC(=Nc1nc(C(C)c2cccc(C(=O)c3ccccc3)c2)n[nH]1)N1CCOCC1.Cl (stereo not shown) [Experiment 75, N'-{3-[1-(3-Benzoylphenyl)ethyl]-1H-1,2,4-triazol-5-yl}-N-ethyl-4-morpholinecarboximidamide hydrochloride] | -1.08 | -0.53 |  |  |
| CNC(=Nc1cc(C(C)c2cccc(C(=O)c3ccccc3)c2)ns1)N1CCOCC1.Cl (stereo not shown) [Experiment 1, N'-{3-[1-(3-Benzoylphenyl)ethyl]-5-isothiazolyl}-N-methyl-4-morpholine carboximidamide hydrochloride] | 0.12 | 0.02 |  |  |
